Where a name gives a salt, the structure may show the parent alone.

For the first assay, the target named is α7 nAChR (Rattus norvegicus, UniProt Q05941). In words: [3H]-MLA competition binding assay, rat brain membranes.
α7 nAChR, sequence (Q05941 23-502): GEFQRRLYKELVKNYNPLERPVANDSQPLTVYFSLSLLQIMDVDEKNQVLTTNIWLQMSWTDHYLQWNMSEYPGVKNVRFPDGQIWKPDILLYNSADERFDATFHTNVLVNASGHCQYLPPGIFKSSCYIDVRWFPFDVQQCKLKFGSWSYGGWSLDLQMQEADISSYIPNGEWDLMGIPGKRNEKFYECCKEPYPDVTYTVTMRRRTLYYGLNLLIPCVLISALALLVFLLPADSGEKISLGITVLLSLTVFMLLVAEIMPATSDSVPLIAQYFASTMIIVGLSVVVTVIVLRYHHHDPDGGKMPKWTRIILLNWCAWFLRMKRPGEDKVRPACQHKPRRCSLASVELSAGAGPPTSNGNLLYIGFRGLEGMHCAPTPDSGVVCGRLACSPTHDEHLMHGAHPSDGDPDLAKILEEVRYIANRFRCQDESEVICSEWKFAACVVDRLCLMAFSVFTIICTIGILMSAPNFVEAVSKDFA
Settings: not given
With `O=C(N[C@H]1CN2CCC1CC2)c1ccc(Sc2ccc(F)c(Cl)c2)s1` [Example 36, N-[(3R)-1-azabicyclo[2.2.2]oct-3-yl]-5-(3-chloro-4-fluorophenylsulfanyl)-thiophene-2-carboxamide], the Ki (usually the dissociation constant of the complex between target and ligand, obtained from inhibition or displacement) fell in the range of 0.11 to 0.115 µM.

Still in this assay, the particulars now being: Ki, inhibition of [3H]-MLA binding (3.0 to 4.0 nM), Sprague-Dawley rat whole brain minus cerebellum homogenate, 1 hour at 25° C.
`CC1C(NC(=O)c2ccc(Br)s2)C2CCN1CC2` (mixture of isomers) [Example 158, 5-Bromo-N-(2-methyl-1-azabicyclo[2.2.2]oct-3-yl)thiophene-2-carboxamide 4-Methylbenzenesulfonate]: the Ki was in the range of 0.012 to 0.02 µM.
With `O=C(N[C@H]1CN2CCC1CC2)c1ccc(-c2ccccc2)s1` [Example 1, N-[(3R)-1-Azabicyclo[2.2.2]oct-3-yl]-5-phenyl-thiophene-2-carboxamide Hydrochloride], the Ki was in the range of 0.013 to 0.033 µM.
`O=C(N[C@H]1CN2CCC1CC2)c1ccc(-c2ccc(Cl)cc2)s1` [Example 2, N-[(3R)-1-azabicyclo[2.2.2]oct-3-yl]-5-(4-clorophenyl)-thiophene-2-carboxamide hydrochloride] displayed a Ki of 0.11 µM.
The compound `O=C(N[C@H]1CN2CCC1CC2)c1ccc(-c2cccc(Cl)c2)s1` [Example 3, N-[(3R)-1-azabicyclo[2.2.2]oct-3-yl]-5-(3-chlorophenyl)-thiophene-2-carboxamide hydrochloride] registered a Ki of 0.095 to 0.157 µM.
`O=C(N[C@H]1CN2CCC1CC2)c1ccc(-c2ccccc2Cl)s1` [Example 4, N-[(3R)-1-azabicyclo[2.2.2]oct-3-yl]-5-(2-chlorophenyl)-thiophene-2-carboxamide hydrochloride] yielded a Ki of 0.06 to 0.073 µM.
Same read-out and setting: with `O=C(N[C@H]1CN2CCC1CC2)c1ccc(-c2ccsc2)s1` [Example 5, N-[(3R)-1-azabicyclo[2.2.2]oct-3-yl]-2,3′-bithiophene-5-carboxamide hydrochloride] the figure was 0.009 to 0.015 µM; with `O=C(N[C@H]1CN2CCC1CC2)c1ccc(-c2ccccc2[N+](=O)[O-])s1` [Example 6, N-[(3R) 1-azabicyclo[2.2.2]oct-3-yl]-5-(2-nitrophenyl)-thiophene-2-carboxamide hydrochloride], 0.005 to 0.01 µM.
Still for that read-out and setting: with `O=C(N[C@H]1CN2CCC1CC2)c1ccc(-c2cccc([N+](=O)[O-])c2)s1` [Example 7, N-[(3R)-1-azabicyclo[2.2.2]oct-3-yl]-5-(3-nitrophenyl)-thiophene-2-carboxamide] the figure was 0.025 to 0.03 µM.
In the case of `O=C(N[C@H]1CN2CCC1CC2)c1cc(-c2ccccc2)cs1` [Example 8, N-[(3R)-1-azabicyclo[2.2.2]oct-3-yl]4-phenyl-thiophene-2-carboxamide hydrochloride], the affinity corresponds to a Ki of 0.046 µM.
In the case of `O=C(N[C@H]1CN2CCC1CC2)c1ccc(-c2cccc(OCc3ccccc3)c2)s1` [Example 9, N-[(3R)-1-azabicyclo[2.2.2]oct-3-yl]-5-(3-benzyloxyphenyl)-thiophene-2-carboxamide hydrochloride], the Ki was 0.54 to 0.57 µM.
The compound `Nc1ccccc1-c1ccc(C(=O)N[C@H]2CN3CCC2CC3)s1` [Example 12, 5-(2-Aminophenyl)-N-[(3R)-1-azabicyclo[2.2.2]oct-3-yl]-thiophene-2-carboxamide] displayed a Ki of 0.045 to 0.075 µM.
The compound `Cc1ccc(-c2ccc(C(=O)N[C@H]3CN4CCC3CC4)s2)s1` [Example 14, N-[(3R)-1-Azabicyclo[2.2.2]oct-3-yl]-5′-methyl-2,2′-bithiophene-5-carboxamide Hydrochloride] displayed a Ki of 0.012 to 0.016 µM.
On to `O=C(N[C@H]1CN2CCC1CC2)c1ccc(-c2ccc(Cl)s2)s1` [Example 15, N-[(3R)-1-Azabicyclo[2.2.2]oct-3-yl]-5′-chloro-2,2′-bithiophene-5-carboxamide Hydrochloride], for which the Ki was 0.04 to 0.09 µM.
Same read-out and setting: with `O=C(N[C@H]1CN2CCC1CC2)c1ccc([N+](=O)[O-])s1` [Example 16, N-[(3R)-1-Azabicyclo[2.2.2]oct-3-yl]-5-nitro-thiophene-2-carboxamide Hydrochloride] the figure was 0.003 to 0.008 µM.
For the compound `NCc1ccc(C(=O)N[C@H]2CN3CCC2CC3)s1` [Example 17, 5-(Aminomethyl)-N-[(3R)-1-azabicyclo[2.2.2]oct-3-yl]-thiophene-2-carboxamide Dihydrochloride], the Ki lay in the range of 0.26 to 0.385 µM.
For `N#Cc1ccc(C(=O)N[C@H]2CN3CCC2CC3)s1` [Example 18, N-[(3R)-1-Azabicyclo[2.2.2]oct-3-yl]-5-cyano-thiophene-2-carboxamide Hydrochloride], the Ki fell in the range of 0.24 to 0.29 µM.
Compound `COc1ccc(C(=O)N[C@H]2CN3CCC2CC3)s1` [Example 19, N-[(3R)-1-Azabicyclo[2.2.2]oct-3-yl]-5-methoxy-thiophene-2-carboxamide Hydrochloride] returned a Ki of 0.024 µM.
The same measure, in the same setting: in the case of `O=C(N[C@H]1CN2CCC1CC2)c1ccc(-c2ccccn2)s1` [Example 20, N-[(3R)-1-Azabicyclo[2.2.2]oct-3-yl]-5-(pyridin-2-yl)-thiophene-2-carboxamide] it was 0.003 to 0.005 µM.
As to `O=C(N[C@H]1CN2CCC1CC2)c1ccc(-c2cccs2)s1` [Example 21], the Ki lay in the range of 0.001 to 0.002 µM.
`CSc1ccc(C(=O)N[C@H]2CN3CCC2CC3)s1` [Example 22, N-[(3R)-1-Azabicyclo[2.2.2]oct-3-yl]-5-(methylsulfanyl)-thiophene-2-carboxamide] yielded a Ki of 0.001 to 0.006 µM.
For `O=C(N[C@H]1CN2CCC1CC2)c1ccc(Cl)s1` [Example 23, N-[(3R)-1-azabicyclo[2.2.2]oct-3-yl]-5-chloro-thiophene-2-carboxamide], the inhibitory constant (Ki) was in the range of 0.006 to 0.01 µM.
Still for that read-out and setting: with `Cc1ccc(C(=O)N[C@H]2CN3CCC2CC3)s1` [Example 25, N-[(3R)-1-azabicyclo[2.2.2]oct-3-yl]-5-methyl-thiophene-2-carboxamide] the figure was 0.01 to 0.015 µM; with `O=C(N[C@H]1CN2CCC1CC2)c1ccc(Br)s1` [Example 26, N-[(3R)-1-azabicyclo[2.2.2]oct-3-yl]-5-bromo-thiophene-2-carboxamide], 0.005 to 0.02 µM; with `O=C(N[C@H]1CN2CCC1CC2)c1ccc(Sc2ccccc2)s1` [Example 27, N-[(3R)-1-azabicyclo[2.2.2]oct-3-yl]-5-(phenylsulfanyl)-thiophene-2-carboxamide], 0.035 to 0.16 µM.
As to `O=C(N[C@H]1CN2CCC1CC2)c1ccc(Sc2ccc(Cl)cc2)s1` [Example 33, N-[(3R)-1-Azabicyclo[2.2.2]oct-3-yl]-5-(4-chlorophenylsulfanyl)-thiophene-2-carboxamide], the Ki came out at 0.027 µM.
`O=C(N[C@H]1CN2CCC1CC2)c1ccc(Sc2ccc(F)cc2F)s1` [Example 34, N-[(3R)-1-azabicyclo[2.2.2]oct-3-yl]-5-(2,4-difluorophenyl-sulfanyl)-thiophene-2-carboxamide hydrochloride] had a Ki of 0.03 to 0.039 µM.
On to `O=C(N[C@H]1CN2CCC1CC2)c1ccc(Sc2cccc(Cl)c2)s1` [Example 35, N-[(3R)-1-azabicyclo[2.2.2]oct-3-yl]-5-(3-chlorophenyl-sulfanyl)-thiophene-2-carboxamide], for which the Ki was in the range of 0.03 to 0.05 µM.
Same read-out and setting: in the case of `O=C(N[C@H]1CN2CCC1CC2)c1ccc(Oc2ccccc2)s1` [Example 40, N-[(3R)-1-Azabicyclo[2.2.2]oct-3-yl]-5-phenoxy-thiophene-2-carboxamide Hydrochloride] it was 0.012 to 0.016 µM.
In turn, `O=C(N[C@H]1CN2CCC1CC2)c1ccc(-c2ccccc2O)s1` [Example 41, N-[(3R)-1-Azabicyclo[2.2.2]oct-3-yl]-5-(2-hydroxyphenyl)-thiophene-2-carboxamide Hydrochloride] yielded a Ki of 0.034 µM.
`O=C(N[C@H]1CN2CCC1CC2)c1ccc(-c2ccc(O)c(F)c2)s1` [Example 43, N-[(3R)-1-Azabicyclo[2.2.2]oct-3-yl]-5-(3-fluoro-4-hydroxyphenyl)-thiophene-2-carboxamide Hydrochloride]: the inhibition constant Ki lay within 0.003 to 0.005 µM.
In turn, `O=C(N[C@H]1CN2CCC1CC2)c1cnc(-c2ccccc2)s1` [Example 50, N-[(3R)-1-Azabicyclo[2.2.2]oct-3-yl]-2-phenyl-1,3-thiazole-5-carboxamide Fumarate] displayed a Ki of 0.068 to 0.564 µM.
Same read-out and setting: in the case of `O=C(N[C@H]1CN2CCC1CC2)c1cnc(-c2ccccc2F)s1` [Example 52, N-[(3R)-1-Azabicyclo[2.2.2]oct-3-yl]-2-(2-fluorophenyl)-1,3-thiazole-5-carboxamide Citrate] it was 0.34 to 0.48 µM; in that of `O=C(N[C@H]1CN2CCC1CC2)c1cnc(-c2cccc(F)c2)s1` [Example 53, N-[(3R)-1-azabicyclo[2.2.2]oct-3-yl]-2-(3-fluorophenyl)-1,3-thiazole-5-carboxamide 4-methylbenzenesulfonate], 1.9 to 1.97 µM; in that of `O=C(N[C@H]1CN2CCC1CC2)c1cnc(-c2ccccc2O)s1` [Example 55, N-[(3R)-1-azabicyclo[2.2.2]oct-3-yl]-2-(2-hydroxyphenyl)-1,3-thiazole-5-carboxamide hydrochloride], 0.06 to 0.07 µM.
As to `O=C(N[C@H]1CN2CCC1CC2)c1ncc(-c2cccc(Cl)c2)o1` [Example 79, N-[(3R)-1-Azabicyclo[2.2.2]oct-3-yl]-5-(3-chlorophenyl)-1,3-oxazole-2-carboxamide 4-Methylbenzenesulfonate], the Ki fell in the range of 0.02 to 0.075 µM.
`COc1cccc(-c2cnc(C(=O)N[C@H]3CN4CCC3CC4)o2)c1` [Example 80, N-[(3R)-1-azabicyclo[2.2.2]oct-3-yl]-5-(3-methoxyphenyl)-1,3-oxazole-2-carboxamide 4-methylbenzenesulfonate] gave a Ki of 0.05 to 0.06 µM.
In turn, `O=C(N[C@H]1CN2CCC1CC2)c1ncc(-c2cccc([N+](=O)[O-])c2)o1` [Example 81, N-[(3R)-1-azabicyclo[2.2.2]oct-3-yl]-5-(3-nitrophenyl)-1,3-oxazole carboxamide 4-methylbenzenesulfonate] registered a Ki of 0.055 to 0.175 µM.
Regarding `COc1ccc(-c2cnc(C(=O)N[C@H]3CN4CCC3CC4)o2)cc1` [Example 82, N-[(3R)-1-azabicyclo[2.2.2]oct-3-yl]-5-(4-methoxyphenyl)-1,3-oxazole-2-carboxamide 4-methylbenzenesulfonate], the Ki was 0.115 to 0.125 µM.
For `O=C(N[C@H]1CN2CCC1CC2)c1ncc(-c2ccccc2[N+](=O)[O-])o1` [Example 83, N-[(3R)-1-azabicyclo[2.2.2]oct-3-yl]-5-(2-nitrophenyl)-1,3-oxazole-2-carboxamide 4-methylbenzenesulfonate], the Ki lay in the range of 0.002 to 0.003 µM.

Values taken from US6500840B2, “Quinuclidine-substituted heteroaryl moieties for treatment of disease” (Pharmacia & Upjohn Company, priority 2000, dated 2002).
